We go through ten compounds from US5405848A, “Substituted thiazolylaminotetrahydropyridopyrimidines derivatives useful as platelet aggregation inhibitors” (Ortho Pharmaceutical Corporation, priority 1993, dated 1995).

One experiment relates to platelets. Briefly: Platelet Aggregation Inhibition Activity (gel-filtered platelets, thrombin or ADP agonist, light transmission). As to conditions: 37° C.; for pIC50: unit inferred. It is filed as cell-based. As for the experimental part: The percentage of platelet aggregation is calculated as an increase in light transmission of drug treated platelet concentrate vs control treated platelet concentrate. Blood is obtained from drug free, normal donors and placed into tubes containing 0.13 M sodium citrate (two sources are routinely used: platelet concentrate obtained from Biological Specialty Corp., Lansdale, Pa. or whole blood obtained from donors). Platelet rich plasma (PRP) is collected by centrifugation of the concentrate or whole blood at 130 ×g for 15 min at 25° C. The PRP (5 mL) is gel filtered through Sepharose 2B (bed volume 50 mL), and the platelet count is adjusted to 2×10^7 platelets per sample. The following constituents are added to a siliconized cuvette: 250 μL of the concentrated platelet flitrate, 100 μL of Tyrode's buffer (0.14 M NaCl, 0.0027 M KCl, 0.012 M NaHCO3, 0.76 mM Na2HPO4, 0.0055 M glucose and 2 mg/mL BSA pH 7.4), 50 μL of 2 mM calcium and test drug […]. Aggregation is monitored in a dual channel Chrono-log Aggregometer for three minutes following the addition of agonist (thrombin 50 μL of 1 unit/mL, or ADP 50 μL of 100 μM). The final assay volume is 500 μL. The reaction takes place at 37° C. The peak aggregation response is calculated as the increase in light transmission units over a three minute period. The difference of the increase in light transmission between control and drug treated platelets is then expressed as a percent of the nondrug treated controls.

Experiment [1] has as its target T1, fibrinogen receptor of blood platelets (activated platelets) (Homo sapiens, UniProt P05106+P08514).
T1 construct: from tissue
As to the kind of experiment: Fibrinogen Binding (125I-fibrinogen binding to thrombin-activated platelets). As to conditions: 125I-fibrinogen 0.15 μM; for pIC50: unit inferred. As for the experimental part:
The compounds of the invention as identified above are evaluated for platelet aggregation inhibition activity as indicated by the percentage of non-aggregated platelets which are available for binding in accordance with the following procedure.
^125 I-Fibrinogen binding to activated platelets is a modification of the procedure described by Bennett et al., 1988. Briefly, 40 mL of PRP are centrifuged at 120 ×g to remove contaminating red cells. Aspirin (50 μM) is added and the PRP is incubated at 37° C. for 20 minutes. The pH of the PRP is adjusted to 6.5 with 3.8% sodium citrate and 0.9 μM of PGE1 is added. Platelets are concentrated by a 300 ×g centrifugation (10 min) and the pellet is resuspended in 4 mL. of Tyrode's buffer. The platelet suspension (4 mL) is gel-filtered through a Sepharose-2B column (50 mL bed volume). The platelet count is adjusted to 1×10^8 platelets per 200 mL. The binding reaction is performed in polystyrene tubes (final volume 500 mL). Reagents are added in the following order: 80 mL of Tyrode's buffer, 50 mL of CaCl2 (final concentration (f.c.) […]) and 50 mL of thrombin (f.c. 0.1 unit/mL). The platelet suspension is then added and the mixture is allowed to incubate at room temperature for 2 minutes. Hirudin (50 mL, f.c. 0.5 unit/mL) is immediately added to prevent the catalytic activity of thrombin. Various concentrations of the compound to be tested […] with the competing radioligand ^125 I-fibrinogen (f.c. of 0.15 μM) are added. The mixture is incubated for 10 minutes at room temperature. To terminate the binding reaction the platelets are sedimented (10,000 ×g for 3 minutes) through silicone oil (3:1 hi-phenol 550/methyl silicone 200, W. F. Nye, Inc., New Bedford, Mass.), in an Eppendorf centrifuge.
The tips of the centrifuge tubes containing the pelleted platelets are cut off and counted for ^125 I-fibrinogen associated with the stimulated platelets. The amount of platelet radioactivity measured in the presence of nonlabeled fibrinogen (4 mg/mL) is considered the nonspecific binding.
Data are expressed as a percent at concentrations of 30 μM of specifically bound ^125 I-fibrinogen to the platelets in Table 5 below. Positive percentages of fibrinogen binding indicates higher activity for inhibiting platelet aggregation since only non-aggregated or free platelets are available for fibrinogen binding. Alternatively, a concentration is provided in lieu of a percentage to indicate the IC50 of concentration of compound which provides 50% fibrinogen binding.

pIC50: −log10 of the molar value.

T1 sequence (P08514 32-887 limits assumed): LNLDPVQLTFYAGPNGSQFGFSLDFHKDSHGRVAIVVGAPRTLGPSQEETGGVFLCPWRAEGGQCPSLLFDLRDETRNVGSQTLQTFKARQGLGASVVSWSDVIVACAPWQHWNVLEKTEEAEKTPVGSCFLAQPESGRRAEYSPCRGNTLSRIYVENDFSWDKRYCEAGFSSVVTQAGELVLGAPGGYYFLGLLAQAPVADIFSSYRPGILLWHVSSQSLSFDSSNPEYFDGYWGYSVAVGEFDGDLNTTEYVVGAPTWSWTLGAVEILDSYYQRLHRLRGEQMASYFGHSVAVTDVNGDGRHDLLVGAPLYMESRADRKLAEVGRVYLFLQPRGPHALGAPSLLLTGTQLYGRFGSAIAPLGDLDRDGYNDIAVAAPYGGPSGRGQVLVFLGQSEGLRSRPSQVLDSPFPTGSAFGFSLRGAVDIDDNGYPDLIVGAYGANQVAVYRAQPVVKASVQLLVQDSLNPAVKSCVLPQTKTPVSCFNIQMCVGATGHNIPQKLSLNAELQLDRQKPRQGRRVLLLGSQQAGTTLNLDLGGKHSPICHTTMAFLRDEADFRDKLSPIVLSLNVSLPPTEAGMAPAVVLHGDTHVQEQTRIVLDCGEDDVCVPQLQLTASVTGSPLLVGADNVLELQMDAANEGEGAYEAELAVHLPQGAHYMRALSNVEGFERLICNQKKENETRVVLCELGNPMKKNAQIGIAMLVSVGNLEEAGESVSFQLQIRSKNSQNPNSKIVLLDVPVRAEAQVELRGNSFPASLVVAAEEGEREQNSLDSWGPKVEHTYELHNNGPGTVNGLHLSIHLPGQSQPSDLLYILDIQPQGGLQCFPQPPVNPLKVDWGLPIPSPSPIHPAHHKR
T1 sequence (P08514 891-1039 partner limits assumed): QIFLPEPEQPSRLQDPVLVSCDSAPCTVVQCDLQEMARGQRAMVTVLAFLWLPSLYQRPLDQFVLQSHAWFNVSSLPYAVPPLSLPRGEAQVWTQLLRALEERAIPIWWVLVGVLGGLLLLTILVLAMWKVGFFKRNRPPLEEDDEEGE
T1 sequence (P05106 27-788): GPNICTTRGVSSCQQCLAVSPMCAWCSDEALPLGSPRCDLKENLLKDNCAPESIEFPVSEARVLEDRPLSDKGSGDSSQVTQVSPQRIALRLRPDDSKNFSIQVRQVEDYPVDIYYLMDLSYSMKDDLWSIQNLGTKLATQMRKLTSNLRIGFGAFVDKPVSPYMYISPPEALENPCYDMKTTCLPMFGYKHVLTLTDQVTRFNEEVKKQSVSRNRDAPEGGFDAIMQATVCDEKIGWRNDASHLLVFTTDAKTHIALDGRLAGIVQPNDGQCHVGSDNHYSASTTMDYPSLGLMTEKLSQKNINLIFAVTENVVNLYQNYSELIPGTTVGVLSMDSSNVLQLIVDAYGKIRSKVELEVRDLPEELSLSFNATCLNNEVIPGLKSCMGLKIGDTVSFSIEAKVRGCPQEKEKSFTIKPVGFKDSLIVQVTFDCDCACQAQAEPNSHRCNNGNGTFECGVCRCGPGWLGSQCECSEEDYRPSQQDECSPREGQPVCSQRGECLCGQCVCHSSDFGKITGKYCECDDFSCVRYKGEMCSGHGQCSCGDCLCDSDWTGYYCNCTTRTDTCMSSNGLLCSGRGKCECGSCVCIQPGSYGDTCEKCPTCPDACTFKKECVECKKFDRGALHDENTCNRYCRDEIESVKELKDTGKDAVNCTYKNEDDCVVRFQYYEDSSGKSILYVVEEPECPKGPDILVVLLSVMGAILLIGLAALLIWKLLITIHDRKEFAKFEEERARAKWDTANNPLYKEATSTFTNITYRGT

As a reminder, the inhibition is the drop in the measured response relative to a control, in per cent. High values mean a response far below the control, low ones a response near the control. `COc1ccc(-c2csc(Nc3nc4c(c(-c5ccccc5)n3)CNCC4)n2)cc1` [Cmpd 18] gave an inhibition at 20 µM in the experiment with platelets of 25%.

Regarding `Cc1ccc(-c2csc(Nc3nc4c(c(-c5ccccc5)n3)CNCC4)n2)cc1` [Cmpd 15, 2-[4-[4-Methylphenyl]thiazol-2-yl]amino-5,6,7,8-tetrahydro-4-phenylpyrimidino[4,5-d]pyridine], the inhibition at 30 µM in experiment [1] turned out to be 28%. Besides, the inhibition at 20 µM in the experiment on platelets turned out to be 85%.

As to `O=C(c1ccccc1)N1CCc2nc(Nc3nc(-c4ccc(F)cc4)cs3)nc(-c3ccccc3)c2C1` [Cmpd 9], 20 µM produced 27% inhibition with platelets.

For orientation: pIC50 means the negative decadic logarithm of the IC50, by convention in mol/L. Read a high pIC50 as a small IC50. On to `Clc1ccc(-c2csc(Nc3nc4c(c(-c5ccccc5)n3)CNCC4)n2)cc1` [Cmpd 21], for which, in experiment [1], the inhibition at 30 µM came to 87% and the pIC50 was 4.68. In the experiment with platelets, this compound gave an inhibition at 20 µM of 84% and a pIC50 of 5.21.

With `CCCNCCC(=O)N1CCc2nc(Nc3nc(-c4cccc(Cl)c4)cs3)nc(-c3ccccc3)c2C1` [Cmpd 28], testing at 20 µM in the experiment with platelets gave an inhibition of 56%.

In the case of `c1ccc(-c2csc(Nc3ncc4c(n3)CCNC4)n2)cc1` [Cmpd 24], in the experiment with platelets, the inhibition at 20 µM amounted to 11%.

In experiment [1], `Fc1ccc(-c2csc(Nc3nc4c(c(-c5ccccc5)n3)CNCC4)n2)cc1` [Cmpd 20] gave an inhibition at 30 µM of 95% and a pIC50 of 4.68. In the experiment on platelets, this compound showed an inhibition at 20 µM of 87% and a pIC50 of 5.24.

As for `Cc1ccc(-c2csc(Nc3ncc4c(n3)CCNC4)n2)cc1` [Cmpd 23], the inhibition at 20 µM in the experiment with platelets worked out at 25%.

In experiment [1], `c1ccc(-c2csc(Nc3nc4c(c(-c5ccccc5)n3)CNCC4)n2)cc1` [Cmpd 13, 2-[4-Phenylthiazol-2-yl]amino-5,6,7,8-tetrahydro-4-phenylpyrimidino[4,5-d]pyridine] had an inhibition at 30 µM of 69% and a pIC50 of 5.11. In the experiment with platelets, this compound gave an inhibition at 20 µM of 100% and a pIC50 of 5.10.

As for `Cc1ccc(-c2csc(Nc3nc4c(c(-c5ccccc5)n3)CN(C(=O)CCN3CCN(C)CC3)CC4)n2)cc1` [Cmpd 26], testing at 30 µM in experiment [1] gave an inhibition of 39%. Besides, in the experiment on platelets, at 20 µM the inhibition was 81%.
